Experimental data taken from US20140120577A1, “Metalloporphyrin Inducible Promoter” (CHR HANSEN A/S, priority 2011, published 2014).
Read-outs that look alike come from different tables or passages of the source.

What was measured:
[1] = tested on: promoter of the ygƒCBA operon (Pheme); test: lacZ reporter (beta-galactosidase) induction in Streptococcus agalactiae NEM316; format: cell-based; conditions: for amount of inducer resulting in optimal induction: 1 or 10 μM tested; for induction (in words): BHI-Tris-glucose, non-aerated and aerated cultures; for induction of the promoter (in words): summary statement; for induction over background without hemin: M17-glucose, added at OD600 ~0.3, 1 hour
Method: The pTCV-lac plasmid was used to transform the Streptococcus agalactiae strain NEM316. The transformants were selected on solid M17-glucose (0.5%) medium containing erythromycin 3 μg/ml.
Hemin and PPIX-Ga solutions are prepared as described in Example 2 above.
The Streptococcus agalactiae cells carrying the plasmid are precultured overnight at 37° C. in M17-glucose (0.2%) and 3 μg/ml erythromycin, or in BHI-Tris medium supplemented with 3 μg/ml erythromycin.
The following day, the precultures are diluted 100-fold in new M17-glucose (1%) medium supplemented with 3 μg/ml erythromycin, or BHI-Tris-glucose (0.5% final concentration), and 3 μg/ml erythromycin. The cultures are grown at 37° C. either under non-aeration conditions or under aeration conditions and growth is monitored by measuring the OD600 as described above for Lactococcus lactis.
The inducer is added during growth when bacteria exit the lag phase (OD600=˜0.25 to 0.3).
Cells are recovered from the cultures at OD600=1, and bacterial beta-galactosidase activity is quantified as described in Example 2 above.

[2] = tested on: promoter of the ygƒCBA operon (Pheme); test: lacZ reporter (beta-galactosidase, Miller method) induction from pTCV Pheme-ygfC-lacZ plasmid in L. lactis MG1363; format: cell-based, Lactococcus lactis; conditions: for fold induction of beta-galactosidase: M17-glucose (1%)
Method: The pTCV-lac plasmid was used to transform the L. lactis strain MG1363. The transformants were selected on M17 plus glucose (0.5%) solid medium containing erythromycin 3 μg/ml. Colonies were purified and cells stored at −80° C.
Hemin solution is prepared at 20 mM in 50 mM NaOH, and aliquoted for storage at −20° C.; one tube is used for each assay and is then discarded.
PPIX-Ga solution is prepared at 10 mM in dimethylsulfoxide, and prepared in aliquots for storage at −20° C.; one tube is used for each assay and is then discarded.
The L. lactis cells carrying the plasmid are precultured overnight at 30° C. under non-aeration conditions in M17-glucose (0.5%) medium or BHI-Tris (note that BHI includes 0.2% glucose). The media are supplemented with 3 μg/ml erythromycin to maintain the plasmid.
The following day, the precultures are diluted 100-fold in new M17-glucose (1%) medium or BHI-Tris medium (0.5% final glucose concentration), and containing 3 μg/ml erythromycin. The cultures are grown at 30° C. either under non-aeration conditions (nonagitated cultures in full bottles), or under aeration conditions (cultures in conical flasks with baffles, one tenth full; agitation at 170 rpm in the presence of air). The growth is monitored by measuring the OD600.
The inducer is added either simultaneously with the bacteria, or during growth when the bacteria exit the lag phase (OD600=˜0.1 in M17-glucose [1%] medium, OD600=˜0.2 to 0.3 in BHI-Tris-glucose medium).
Cells are recovered from the cultures at OD600=1, and beta-galactosidase activity of the bacterial extracts is quantified by the Miller method (MILLER, Experiments in molecular genetics. Cold Spring Harbor Laboratory Press, Cold Spring Harbor, N.Y., 1972). In the presence of o-nitrophenyl-β-D-galactoside (ONPG), beta-galactosidase produces yellow-colored O-nitrophenol which can be assayed by measuring the optical density at 420 nm (A420); Beta-galactosidase activity of each sample is measured in Miller units by the following formula: 1000×A420/T(min)×V(ml)×A600. This formula measures activity in a cell sample, such that the value is standardized to the same cell biomass (given as the A600 value).

[3] = tested on: PhemeygƒC inducible system; test: PHEME-ygƒC-lacZ reporter induction in Lactobacillus casei (BETA-GLO test); format: cell-based; conditions: 10 μM hemin; MRS; static or aerated; 1 hour; endogenous background subtracted
Method: The pTCV-PhemeygƒC-lacZ plasmid described in Example 1 was used to transform a Lactobacillus casei laboratory strain. Transformants were selected on solid MRS medium containing erythromycin 3 μg/ml.
Hemin was prepared as described in Example 2 above.
The Lactobacillus casei cells carrying the pTCV-PhemeygƒC-lacZ plasmid were precultured overnight at 37° C. in MRS containing 3 μg/ml erythromycin. […] This was used as a control for background due to endogenous beta-galactosidase activity present in this species.
The following day, the precultures were diluted 20-fold in fresh MRS medium supplemented with 3 μg/ml erythromycin. The cultures were grown at 37° C. under static and aeration conditions and growth was monitored by measuring the OD600 as described above for Lactococcus lactis. The hemin inducer (10 μM final concentration) was added during growth once bacteria were in exponential phase (OD600=˜0.4).
Cells in mid exponential phase (OD600=˜0.4) were recovered from the cultures after 1 hour in the presence of the hemin inducer and the volumes were adjusted to a final fixed OD600 for the assay. In this experiment, bacterial beta-galactosidase activity is quantified using the commercially available BETA-GLO test (Promega), following manufacturer instructions.

ygƒCBA operon = conditions: 100 μM heme, cited from earlier work
[4] = BHI-Tris-glucose medium, non-aeration or aeration

| Structure (SMILES) | amount of inducer resulting in optimal induction [1, 4] [µM] | induction (in words) [1] | induction of the promoter (in words) [1] | fold induction of beta-galactosidase ([2]; non-aeration (static), 10 or 20 μM added during growth (OD600 ~0.1)) [fold] | fold induction of beta-galactosidase ([2]; non-aeration (static), 10 or 20 μM added simultaneously with the bacteria) [fold] | induction of the promoter (in words) ([2]; aeration and non-aeration conditions) | amount of inducer resulting in optimal induction ([1]; M17-glucose medium, non-aeration and aeration) [µM] | induction over background without hemin ([1]; aeration conditions) | induction over background without hemin ([1]; non-aeration conditions) | fold induction of beta-galactosidase ([2]; aeration, inducer added during growth (OD600 ~0.1), cells recovered at OD600=1) [fold] | fold induction of beta-galactosidase ([2]; aeration, inducer added simultaneously with the bacteria, cells recovered at OD600=1) [fold] | increase of beta-galactosidase expression ([2]; depending on the heme concentration and the culture conditions) | induction of beta-galactosidase (in words) [3] | induction of the ygƒCBA operon (ygƒCBA operon; aeration conditions) | induction of the ygƒCBA operon (ygƒCBA operon; non-aeration conditions) |
| --- | --- | --- | --- | --- | --- | --- | --- | --- | --- | --- | --- | --- | --- | --- | --- |
| C=CC1=C(C)C2=[N+]3C1=Cc1c(C)c(C=C)c4[n]1[Ga-]31[n]3c(c(C)c(CCC(=O)O)c3=CC3=[N+]1C(=C4)C(C)=C3CCC(=O)O)=C2 (stereo not drawn) [Ga-PPIX, gallium-protoporphyrin IX] | 10 | efficient | efficient inducers | 120 | 90 | efficient inducer |  |  |  |  |  |  |  |  |  |
| C=CC1=C(C)c2cc3[n-]c(cc4[n-]c(cc5nc(cc1n2)C(C)=C5C=C)c(C)c4CCC(=O)O)c(CCC(=O)O)c3C.[Cl-].[Fe+3] [hemin] | 1 | efficient | efficient inducers |  |  |  | 1 | more than 150 fold | less than 50 fold | 80 | 70 | up to 100 fold | strong induction | up to 50 fold | up to 80 fold |
